{"source": "patent US9012500B2", "about": "“PKC-ε activator” (Nishizaki Bioinformation Research Institute, priority 2010, dated 2015)", "key": {"[1]": {"biological_target": "T1, PKC-ε (Rattus norvegicus, UniProt P09216)", "T1 construct": "PC-12 cells were transfected with PKC-ε siRNA or NC siRNA; endogenous in cells; host or cells: rat PC-12 cells", "T1 sequence (P09216 1-737)": "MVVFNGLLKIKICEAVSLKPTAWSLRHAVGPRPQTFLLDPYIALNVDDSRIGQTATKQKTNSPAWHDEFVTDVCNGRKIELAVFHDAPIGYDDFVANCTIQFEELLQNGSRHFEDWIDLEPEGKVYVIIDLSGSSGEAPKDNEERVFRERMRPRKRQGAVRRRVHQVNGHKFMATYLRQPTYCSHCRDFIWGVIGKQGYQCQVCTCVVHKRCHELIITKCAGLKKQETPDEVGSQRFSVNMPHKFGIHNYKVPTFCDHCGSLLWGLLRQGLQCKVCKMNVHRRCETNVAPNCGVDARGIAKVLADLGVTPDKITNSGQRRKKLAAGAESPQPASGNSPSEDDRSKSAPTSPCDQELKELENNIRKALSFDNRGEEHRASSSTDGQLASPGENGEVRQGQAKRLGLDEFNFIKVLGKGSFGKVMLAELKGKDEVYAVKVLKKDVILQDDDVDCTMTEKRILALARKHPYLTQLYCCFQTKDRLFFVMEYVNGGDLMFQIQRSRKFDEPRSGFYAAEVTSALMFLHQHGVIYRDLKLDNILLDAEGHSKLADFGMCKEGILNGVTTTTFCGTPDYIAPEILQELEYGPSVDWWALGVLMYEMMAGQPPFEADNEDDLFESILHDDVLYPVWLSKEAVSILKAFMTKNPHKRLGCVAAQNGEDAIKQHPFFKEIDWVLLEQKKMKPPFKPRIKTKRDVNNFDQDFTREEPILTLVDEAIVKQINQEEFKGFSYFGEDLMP", "assay": "Intracellular PKC assay after knockdown of PKC-ε (siRNA) in PC-12 cells", "type": "cell-based", "conditions": "PKC-ε siRNA vs NC siRNA, FIG. 3", "experimental": "According to the method described in a publication [Kanno T et al., J Lipid Res 47 (6):1146-1156, 2006], the PKC activity of rat PC-12 cells was assayed. The cells were treated with each DCP-LA optical isomer at 37° C. for 10 min. The treatment was performed in an extracellular solution [137 mM NaCl, 5.4 mM KCl, 10 mM MgCl2, 5 mM ethyleneglycol-bis(2-aminoethylether)-N,N,N′,N′-tetraacetic acid (EGTA), 0.3 mM Na2HPO4, 0.4 mM K2HPO4 and 20 mM 4-(2-hydroxyethyl)-1-piperazin-ethanesulfonic acid, pH 7.2]. Then, the cells were rinsed with 100 μl of phosphate-buffered saline (PBS) in the absence of Ca^2+, and incubated in an extracellular solution (50 μl) containing 50 μg/ml digitonin, 25 mM glycerol 2-phosphate, 200 μM ATP and 100 μM synthetic PKC substrate peptide (Pyr-Lys-Arg-Pro-Ser-Gln-Arg-Ser-Lys-Tyr-Leu (SEQ ID NO: 1); MW, 1,374; Pyr: […]) at 37° C. for 15 min. […] A substrate peptide peak and a new resultant product peak were detected at the absorbance of 214 nm (SPD-10Avp UV-VIS detector, Shimadzu Co., Kyoto, Japan). […] The molecular weight was calculated from the two standard spectra of bradykinin (MW 1060.2) and substance P (MW 1672.9).\nThe areas of the non-phosphorylated and phosphorylated substrate peptides were measured (total area corresponds to the concentration of PKC substrate peptide used). […]"}, "[2]": {"tested_on": "senescence-accelerated mouse (SAMP8)", "assay": "Water maze test in senescence-accelerated mouse (SAMP8)", "type": "in vivo", "conditions": "SAMP8, 0.25 mg/kg orally once a day, 8 days", "experimental": "Using senescence-accelerated mouse (accelerated-senescence-prone mice 8: SAMP8) and normal senescence mouse (accelerated-senescence-resistant mice 1: SAMR1) as a control thereof, a water maze test was performed. Male SAMP8 and SAMR1 (22- to 25-week-old) were available from Takeda Pharmaceutical Company Limited (Osaka, Japan). The mice were individually raised in a cage at 23±1° C., 12 hr light/dark cycle (lighted at 7:00 am), and allowed to freely ingest feed (solid feed) and water.\nRacemate DCP-LA and 4 optical isomers DCP-LA (α,α-, α,β-, β,α-, β,β-DCP-LA), each dissolved in 0.1 ml polyethylene glycol (PEG), or 0.1 ml PEG were orally administered once a day from the day when the water maze test was started. For each group, the water maze test was performed twice a day for 8 days, and the time required to reach a platform (acquisition latency) was measured.\nFor the water maze test, a circular plastic water tank (diameter 90 cm, depth 36 cm) was used. The inside of the water tank was completely painted in black, and dark water with India ink was filled up to 20 cm from the bottom (22° C.). A platform (diameter 11 cm) painted in black was placed in water such that it was 1 cm below the water surface. The water tank was placed in a test room, and several marks seen by the mice from the water tank were put thereon. During the test, the position of the marks was not changed. A platform was placed a predetermined position from the equal distance from the center and the end of the water tank, namely, center of one quadrant. At one of the randomly selected 5 points, the mouse was released facing the wall of the water tank, and the time necessary for evacuating on the platform (acquisition latency) was measured. When smoothly evacuated, the mouse was left on the platform for 10 seconds. From the day of water maze test and during the test, polyethylene glycol (PEG) alone or racemate DCP-LA (1 mg/kg), α,α-DCP-LA (0.25 mg/kg), α,β-DCP-LA (0.25 mg/kg), β,α-DCP-LA (0.25 mg/kg), or β,β-DCP-LA (0.25 mg/kg), each dissolved in PEG, was orally administered every day. The water maze test was performed twice a day, and the second test was started at 2 min from the first test. The test was continuously performed for 8 days, and the average value (±SEM) of acquisition latency of continuous 2 days until the mouse reached the platform was calculated (each n=5)."}}}
{"smiles": "CCCCC[C@@H]1C[C@@H]1C[C@@H]1C[C@H]1CCCCCCCC(=O)O", "note": "[α,β-DCP-LA, 8-[(1R,2S)-2-{(1R,2R)-2-pentylcyclopropylmethyl}-cyclopropyl]octanoic acid]", "values": [{"measurement": "PKC activation induced by the compound after knocking down PKC-ε", "setting": "[1]", "value": "inhibited by knocking down PKC-ε"}, {"measurement": "acquisition latency as compared to the PEG administration group", "setting": "[2]", "value": "shortened acquisition latency"}, {"measurement": "acquisition latency as compared to the racemate DCP-LA (1 mg/kg) administration group", "setting": "[2]", "value": "significantly shortened acquisition latency"}, {"measurement": "acquisition latency as compared to the α,α-DCP-LA (0.25 mg/kg) administration group", "setting": "[2]", "value": "significantly shortened acquisition latency"}]}
